Among the data in PubChem BioAssay (NCI) are GI50 and TGI values, retold here.

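Assay format: 96-well plates, 48-hour exposure. GI50: concentration for 50% inhibition of growth. TGI marks complete inhibition of growth.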

Among the test systems are DU-145 prostate; KM12 colon; NCI-H23 lung; NCI-H460 lung; NCI-H522 lung; OVCAR-8 ovarian; RXF 393 renal; SK-MEL-5 melanoma; UACC-257 melanoma; UO-31 renal.
Common to all, as to test: inhibition of tumour cell growth, NCI panel, 48 h

For the molecule `O=C(Nc1ccccc1Cl)c1cccc(NC2=C(Cl)C(=O)N(Cc3ccccc3)C2=O)c1`, the GI50 with DU-145 prostate was 28.5 µM; in the test on KM12 colon it was 0.0371 µM; in the test with NCI-H23 lung, 50.5 µM; in the test with NCI-H460 lung it was 26.8 µM; in the test with NCI-H522 lung it was 7.72 µM; in the test on OVCAR-8 ovarian, 20.8 µM. In addition, the GI50 is 52.5 µM in the test on RXF 393 renal, 14.1 µM with SK-MEL-5 melanoma, 24.3 µM in the test with UACC-257 melanoma and 4.91 µM in the test with UO-31 renal. The TGI in the test on DU-145 prostate is over 100 µM; in the test with KM12 colon, 9.86 µM; with NCI-H23 lung it was over 100 µM; in the test on NCI-H460 lung, over 100 µM; with NCI-H522 lung it was 31.1 µM; in the test with OVCAR-8 ovarian it was over 100 µM. Moreover, the TGI with RXF 393 renal was over 100 µM; in the test with SK-MEL-5 melanoma, 51.4 µM; in the test on UACC-257 melanoma, over 100 µM; in the test on UO-31 renal it was 53.8 µM.
Consider `OCc1ccc(N2CCCC2)cc1Cl`, for which the GI50 is 34.4 µM in the test on DU-145 prostate; over 100 µM in the test on KM12 colon; 27.5 µM in the test with NCI-H23 lung; 3.55 µM in the test on NCI-H460 lung; 14.5 µM with NCI-H522 lung; 46 µM in the test on OVCAR-8 ovarian. Further, the GI50 was 9.57 µM in the test on RXF 393 renal, 18.7 µM in the test on SK-MEL-5 melanoma, 0.338 µM with UACC-257 melanoma and 17.2 µM in the test with UO-31 renal. Besides, the TGI in the test on DU-145 prostate was over 100 µM; in the test with KM12 colon, over 100 µM; in the test on NCI-H23 lung, over 100 µM; in the test on NCI-H460 lung, 28.5 µM; in the test with NCI-H522 lung, 32.5 µM; in the test with OVCAR-8 ovarian, over 100 µM. Besides, the TGI in the test with RXF 393 renal is 27.1 µM; in the test on SK-MEL-5 melanoma, over 75.5 µM; in the test with UACC-257 melanoma, 1.28 µM; in the test with UO-31 renal it was 50 µM.
As for `N/C(=N\c1nc2ccccc2s1)NC(=NC1CCCCC1)NC1CCCCC1`, the GI50 is 1.78 µM in the test on DU-145 prostate; 1.94 µM with KM12 colon; 1.75 µM in the test with NCI-H23 lung; 1.77 µM in the test with NCI-H460 lung; 1.89 µM in the test with NCI-H522 lung; 1.97 µM with OVCAR-8 ovarian. For the same molecule, the GI50 with RXF 393 renal is 1.46 µM; with SK-MEL-5 melanoma, 1.8 µM; in the test with UACC-257 melanoma it was 1.76 µM; in the test with UO-31 renal, 1.27 µM. In addition, the TGI in the test with DU-145 prostate was found to be 3.34 µM; in the test on KM12 colon, 3.78 µM; with NCI-H23 lung, 3.38 µM; in the test on NCI-H460 lung it was 3.43 µM; with NCI-H522 lung, 4.22 µM; in the test on OVCAR-8 ovarian, 4.98 µM. Besides, the TGI worked out at 2.86 µM in the test on RXF 393 renal, 3.21 µM in the test with SK-MEL-5 melanoma, 3.65 µM in the test on UACC-257 melanoma and 2.55 µM in the test on UO-31 renal.
On to `COc1cc2c(c(OC)c1OC)-c1c(cc3c(c1OC)OCO3)CC(C)C(C)(O)C2OC(=O)c1ccccc1` (stereo not given), for which the TGI in the test with DU-145 prostate, in the test with KM12 colon, in the test with NCI-H23 lung, in the test with NCI-H460 lung, with NCI-H522 lung and in the test with OVCAR-8 ovarian was over 100 µM each time. The TGI was 86.2 µM in the test on RXF 393 renal, over 100 µM in the test on SK-MEL-5 melanoma, over 100 µM in the test on UACC-257 melanoma and 87.3 µM with UO-31 renal.
Regarding `O=S(=O)(NC1=NCCN1C(=S)SN1CCn2c1nsc2=S)c1cccc(OC(F)(F)F)c1`, the GI50 is 14.1 µM in the test with DU-145 prostate; 10.3 µM in the test on KM12 colon; 12.8 µM with NCI-H23 lung; 13.4 µM in the test with NCI-H460 lung; 6.85 µM with NCI-H522 lung; 11 µM in the test with OVCAR-8 ovarian. The GI50 with RXF 393 renal was 2.42 µM; in the test with SK-MEL-5 melanoma it was 16.6 µM; in the test on UACC-257 melanoma, 17.3 µM; in the test with UO-31 renal, 14.1 µM. Moreover, the TGI in the test on DU-145 prostate worked out at 29.6 µM; in the test on KM12 colon, 24.5 µM; in the test with NCI-H23 lung, 32.1 µM; in the test with NCI-H460 lung, 41.4 µM; with NCI-H522 lung, 28.3 µM; in the test on OVCAR-8 ovarian, 65.1 µM. For the same molecule, the TGI in the test on RXF 393 renal was 6 µM; in the test with SK-MEL-5 melanoma, 32.8 µM; with UACC-257 melanoma, 38.1 µM; in the test on UO-31 renal it was 28.1 µM.
For `CN(c1ccc(C#N)c(Cl)c1)C1CCC(NC(=O)c2ccc(N3CCN(C4CN(c5ccc6c(c5)C(=O)N(C5CCC(=O)NC5=O)C6=O)C4)CC3)cc2)CC1` (stereo not given), the GI50 in the test on DU-145 prostate, in the test on KM12 colon, in the test on NCI-H23 lung, in the test on NCI-H460 lung, with NCI-H522 lung and in the test on OVCAR-8 ovarian was over 100 µM in each case. For the same molecule, the GI50 in the test with RXF 393 renal, in the test with SK-MEL-5 melanoma, with UACC-257 melanoma and in the test on UO-31 renal was over 100 µM throughout. The TGI in the test on DU-145 prostate, with KM12 colon, with NCI-H23 lung, with NCI-H460 lung, in the test with NCI-H522 lung and with OVCAR-8 ovarian was over 100 µM throughout. The TGI in the test on RXF 393 renal, with SK-MEL-5 melanoma, in the test with UACC-257 melanoma and in the test with UO-31 renal was over 100 µM each time.
For the molecule `CN1CCN(c2cc3nc4ccccc4n(-c4ccc(Cl)cc4)c-3cc2=N)CC1`, the GI50 in the test on DU-145 prostate was 37.8 µM; in the test with KM12 colon it was 16.6 µM; with NCI-H23 lung, 15.9 µM; in the test with NCI-H460 lung it was 39.6 µM; in the test on NCI-H522 lung, 21.5 µM; in the test with OVCAR-8 ovarian, 13.7 µM. Besides, the GI50 in the test on RXF 393 renal was 20.3 µM; with SK-MEL-5 melanoma, 16.3 µM; in the test on UACC-257 melanoma, 19.2 µM; with UO-31 renal, 29.2 µM. Further, the TGI was over 100 µM with DU-145 prostate; 43.8 µM in the test on KM12 colon; 32.9 µM in the test with NCI-H23 lung; over 100 µM in the test with NCI-H460 lung; 52.6 µM in the test with NCI-H522 lung; 38.4 µM in the test on OVCAR-8 ovarian. In addition, the TGI with RXF 393 renal is 99.8 µM; in the test on SK-MEL-5 melanoma it was 32.7 µM; with UACC-257 melanoma, 39.2 µM; in the test on UO-31 renal, over 100 µM.
Consider `CCSc1nc(N)c(C#N)c(-c2ccco2)c1C#N`, for which the GI50 in the test on DU-145 prostate is 42.6 µM; with KM12 colon, 27.4 µM; in the test on NCI-H23 lung, 53.2 µM; with NCI-H460 lung it was 33.5 µM; in the test with NCI-H522 lung it was 91.5 µM; in the test on OVCAR-8 ovarian, 53.6 µM. Besides, the GI50 is 56.4 µM with RXF 393 renal, 33.3 µM with SK-MEL-5 melanoma, 31.7 µM in the test with UACC-257 melanoma and 56.1 µM in the test with UO-31 renal. Besides, the TGI with DU-145 prostate, in the test with KM12 colon, with NCI-H23 lung, with NCI-H460 lung, in the test on NCI-H522 lung and with OVCAR-8 ovarian was over 100 µM each time. Also, the TGI is over 100 µM with RXF 393 renal, over 100 µM with SK-MEL-5 melanoma, 80.2 µM with UACC-257 melanoma and over 100 µM in the test with UO-31 renal.
